Test results published in patent US20240358693A1, “METHODS OF TREATING PAIN” (Aisa Pharma, Inc., priority 2023, published 2024).

System: participants with SSc-RP
Assay: Frequency of weekly RP attacks (all attacks; primary efficacy endpoint)
Type: in vivo, human
Settings: for Weekly RP Attacks, Q3 / Weekly RP Attacks Change from Baseline, Max / Weekly RP Attacks Change from Baseline, Mean / Weekly RP Attacks Change from Baseline, Median / Weekly RP Attacks Change from Baseline, Min / Weekly RP Attacks Change from Baseline, Q1 / Weekly RP Attacks Change from Baseline, Q3 / Weekly RP Attacks Percent Change from Baseline, Max / Weekly RP Attacks Percent Change from Baseline, Mean / Weekly RP Attacks Percent Change from Baseline, Median / Weekly RP Attacks Percent Change from Baseline, Min / Weekly RP Attacks Percent Change from Baseline, Q1 / Weekly RP Attacks Percent Change from Baseline, Q3 / Weekly RP Attacks, Max / Weekly RP Attacks, Mean / Weekly RP Attacks, Median / Weekly RP Attacks, Min / Weekly RP Attacks, Q1 / Weekly RP Attacks Change from Baseline, Mean (SD) / Weekly RP Attacks Percent Change from Baseline, Mean (SD) / Weekly RP Attacks, Mean (SD): all attacks, tadalafil 5 mg daily
Text: Percent change from baseline evaluation for frequency of weekly RP attacks were or will be used as the primary efficacy variable. The sponsor-developed participant-informed diary will be used to record data. Frequency of weekly RP attacks is defined as the total number of RP attacks divided by the number of days with available diary data within the last 7 days of each dosing period then multiplied by 7. Total number of RP attacks during the last 7 days of screening period divided by the number of days with available data then multiplied by 7 will be used as baseline for the analysis of all periods. The variable will be calculated as follows:
Percentage change={(weekly RP attacks for the last 7 days of each dosing period−Baseline weekly RP attacks)/Baseline weekly RP attacks}*100%.
Absolute change=weekly RP attacks for the last 7 days of each dosing period−Baseline weekly RP attacks
Percent change from baseline evaluation for frequency of weekly RP attacks was and will be the primary efficacy endpoint. Frequency of weekly RP attacks is defined as the total number of RP attacks divided by the number of days with available diary data within the last 7 days of each dosing period then multiplied by 7. Total number of RP attacks during the last 7 days of screening period divided by the number of days with available data then multiplied by 7 will be used as baseline for the analysis of all periods.
Percent change from baseline evaluation for frequency of weekly RP attacks were the primary efficacy endpoint. Data collected in the last 7 days of each dosing period were used for this analysis. Screening assessments were used as baseline for the analysis of all periods. No multiple comparison adjustment were used to control alpha for the multiple comparisons. Mixed effects model were used for analysis of the primary endpoint according to the crossover design. Other efficacy endpoints of continuous variables were analyzed using similar methodology. For nominal data, chi-square tests were applied. Generalized Estimating Equations method were used, as appropriate, for adjusting for potential confounding factors. In addition, the final analysis assessed whether in this study of severe Raynaud's disease participants, the minimally important difference, previously concluded of 14-15 points on the 100 point RCS scale had been achieved in the cilnidipine dose group. It also recorded the percentage of participants achieving a PASS (34 point difference from baseline on a 0-100 VAS) in each treatment group.

[1] = by baseline RCS, first subgroup, cilnidipine 10 mg
[2] = by baseline RCS, first subgroup, cilnidipine 20 mg
[3] = by baseline RCS, first subgroup, pooled cilnidipine 10 mg and 20 mg
[4] = pooled cilnidipine 10 mg and 20 mg

COCCOC(=O)C1=C(C)NC(C)=C(C(=O)OC/C=C/c2ccccc2)C1c1cccc([N+](=O)[O-])c1 (stereo not shown) [Cilnidipine, cilnidipine]
−28.1%: Weekly RP Attacks Percent Change from Baseline, Max [3] | Weekly RP Attacks Percent Change from Baseline, Max [4]
−46.4%: Weekly RP Attacks Percent Change from Baseline, Min [2] | Weekly RP Attacks Percent Change from Baseline, Min [3] | Weekly RP Attacks Percent Change from Baseline, Min (cilnidipine 20 mg) | Weekly RP Attacks Percent Change from Baseline, Min [4]
11.00: Weekly RP Attacks, Q3 [2] | Weekly RP Attacks, Median [3] | Weekly RP Attacks, Q3 (cilnidipine 20 mg) | Weekly RP Attacks, Median [4]
8.00: Weekly RP Attacks, Mean [2] | Weekly RP Attacks, Median [2] | Weekly RP Attacks, Median (cilnidipine 20 mg)
−6.67 (3.300): Weekly RP Attacks Change from Baseline, Mean (SD) (cilnidipine 20 mg)
−46.43%: Weekly RP Attacks Percent Change from Baseline, Q1 [2] | Weekly RP Attacks Percent Change from Baseline, Q1 [3] | Weekly RP Attacks Percent Change from Baseline, Q1 (cilnidipine 20 mg) | Weekly RP Attacks Percent Change from Baseline, Q1 [4]
−39.85%: Weekly RP Attacks Percent Change from Baseline, Mean [3]
23.00: Weekly RP Attacks, Q3 (excluding outliers, pooled cilnidipine 10 mg and 20 mg) | Weekly RP Attacks, Mean [1] | Weekly RP Attacks, Median [1] | Weekly RP Attacks, Q3 [3] | Weekly RP Attacks, Mean (SD) (cilnidipine 10 mg) | Weekly RP Attacks, Median (cilnidipine 10 mg) | Weekly RP Attacks, Q3 [4]
23.0: Weekly RP Attacks, Max [3] | Weekly RP Attacks, Max [4]
5.0: Weekly RP Attacks, Min [2] | Weekly RP Attacks, Min [3] | Weekly RP Attacks, Min (cilnidipine 20 mg) | Weekly RP Attacks, Min [4]
−28.13%: Weekly RP Attacks Percent Change from Baseline, Mean [1] | Weekly RP Attacks Percent Change from Baseline, Median [1] | Weekly RP Attacks Percent Change from Baseline, Q3 [3] | Weekly RP Attacks Percent Change from Baseline, Mean (SD) (cilnidipine 10 mg) | Weekly RP Attacks Percent Change from Baseline, Median (cilnidipine 10 mg) | Weekly RP Attacks Percent Change from Baseline, Q3 [4]
23.00, 23.00: Weekly RP Attacks, Q1 [1] | Weekly RP Attacks, Q3 [1] | Weekly RP Attacks, Q1 (cilnidipine 10 mg) | Weekly RP Attacks, Q3 (cilnidipine 10 mg)
43%: reduction in weekly attack frequency (primary endpoint) (cilnidipine 20 mg, 19% with placebo)
−45.71 (1.010) Percent: Weekly RP Attacks Percent Change from Baseline, Mean (SD) (cilnidipine 20 mg)
−45.0%: Weekly RP Attacks Percent Change from Baseline, Max [2] | Weekly RP Attacks Percent Change from Baseline, Max (cilnidipine 20 mg)
−7.44 (2.694): Weekly RP Attacks Change from Baseline, Mean (SD) [4]
−39.85 (10.180) Percent: Weekly RP Attacks Percent Change from Baseline, Mean (SD) [4]
−45.71%: Weekly RP Attacks Percent Change from Baseline, Mean [2] | Weekly RP Attacks Percent Change from Baseline, Median [2] | Weekly RP Attacks Percent Change from Baseline, Median (cilnidipine 20 mg)
−9.00, −9.00: Weekly RP Attacks Change from Baseline, Q1 [1] | Weekly RP Attacks Change from Baseline, Q3 [1] | Weekly RP Attacks Change from Baseline, Q1 (cilnidipine 10 mg) | Weekly RP Attacks Change from Baseline, Q3 (cilnidipine 10 mg)
−7.44: Weekly RP Attacks Change from Baseline, Mean [3]
−31 to −40%: reduction in weekly attack frequency, typical attacks (pooled cilnidipine monotherapy or cilnidipine plus tadalafil treated patients (n=7))
−28.13, −28.13%: Weekly RP Attacks Percent Change from Baseline, Q1 [1] | Weekly RP Attacks Percent Change from Baseline, Q3 [1] | Weekly RP Attacks Percent Change from Baseline, Q1 (cilnidipine 10 mg) | Weekly RP Attacks Percent Change from Baseline, Q3 (cilnidipine 10 mg)
8.00 (4.243): Weekly RP Attacks, Mean (SD) (cilnidipine 20 mg)
−9.0, −9.0: Weekly RP Attacks Change from Baseline, Max [1] | Weekly RP Attacks Change from Baseline, Min [1] | Weekly RP Attacks Change from Baseline, Max (cilnidipine 10 mg) | Weekly RP Attacks Change from Baseline, Min (cilnidipine 10 mg)
13.00: Weekly RP Attacks, Mean [3]
13.00 (9.165): Weekly RP Attacks, Mean (SD) [4]
5.00: Weekly RP Attacks, Q1 [2] | Weekly RP Attacks, Q1 [3] | Weekly RP Attacks, Q1 (cilnidipine 20 mg) | Weekly RP Attacks, Q1 [4]
−28.1, −28.1%: Weekly RP Attacks Percent Change from Baseline, Max [1] | Weekly RP Attacks Percent Change from Baseline, Min [1] | Weekly RP Attacks Percent Change from Baseline, Max (cilnidipine 10 mg) | Weekly RP Attacks Percent Change from Baseline, Min (cilnidipine 10 mg)
−9.00: Weekly RP Attacks Change from Baseline, Mean [1] | Weekly RP Attacks Change from Baseline, Median [1] | Weekly RP Attacks Change from Baseline, Q1 [2] | Weekly RP Attacks Change from Baseline, Median [3] | Weekly RP Attacks Change from Baseline, Q1 [3] | Weekly RP Attacks Change from Baseline, Mean (SD) (cilnidipine 10 mg) | Weekly RP Attacks Change from Baseline, Median (cilnidipine 10 mg) | Weekly RP Attacks Change from Baseline, Q1 (cilnidipine 20 mg) | Weekly RP Attacks Change from Baseline, Median [4] | Weekly RP Attacks Change from Baseline, Q1 [4]
−4.3: Weekly RP Attacks Change from Baseline, Max [2] | Weekly RP Attacks Change from Baseline, Max [3] | Weekly RP Attacks Change from Baseline, Max (cilnidipine 20 mg) | Weekly RP Attacks Change from Baseline, Max [4]
−6.67: Weekly RP Attacks Change from Baseline, Mean [2] | Weekly RP Attacks Change from Baseline, Median [2] | Weekly RP Attacks Change from Baseline, Median (cilnidipine 20 mg)
−45.00%: Weekly RP Attacks Percent Change from Baseline, Q3 [2] | Weekly RP Attacks Percent Change from Baseline, Median [3] | Weekly RP Attacks Percent Change from Baseline, Q3 (cilnidipine 20 mg) | Weekly RP Attacks Percent Change from Baseline, Median [4]
43%_vs 23% with: Attacks reduced (summary of data (Table S))
−4.33: Weekly RP Attacks Change from Baseline, Q3 [2] | Weekly RP Attacks Change from Baseline, Q3 [3] | Weekly RP Attacks Change from Baseline, Q3 (cilnidipine 20 mg) | Weekly RP Attacks Change from Baseline, Q3 [4]
23.0, 23.0: Weekly RP Attacks, Max [1] | Weekly RP Attacks, Min [1] | Weekly RP Attacks, Max (cilnidipine 10 mg) | Weekly RP Attacks, Min (cilnidipine 10 mg)
11.0: Weekly RP Attacks, Max [2] | Weekly RP Attacks, Max (cilnidipine 20 mg)
−9.0: Weekly RP Attacks Change from Baseline, Min [2] | Weekly RP Attacks Change from Baseline, Min [3] | Weekly RP Attacks Change from Baseline, Min (cilnidipine 20 mg) | Weekly RP Attacks Change from Baseline, Min [4]
